According to patent US10787451B2, “Crystalline form of GnRH receptor antagonist and preparation method therefor” (Jiangsu Hengrui Medicine Co., Ltd., priority 2016, dated 2020):
Entries after “also recorded” stand apart in the source; their conditions may differ.

Key:
[1] = Stability test of crystal forms spread flat in the air under lighting, heating and high humidity (HPLC purity, XRPD); format: physicochemical; conditions: for purity as detected by HPLC, 40° C.: heating 40° C.; for purity as detected by HPLC, 40° C. / purity as detected by HPLC, 60° C. / purity as detected by HPLC, RH 75% / purity as detected by HPLC, RH 90% / purity as detected by HPLC, Lighting: spread flat in the air; for purity as detected by HPLC, 60° C.: heating 60° C.; for purity as detected by HPLC, RH 75%: high humidity RH 75%; for purity as detected by HPLC, RH 90%: high humidity RH 90%; for purity as detected by HPLC, Lighting: lighting (4500 Lux)
Method: The product sample of crystal form I prepared in Example 1 and the product samples of crystal forms A, B, C and D prepared in Examples 12, 13, 14 and 15 were spread flat in the air to test sample stability under conditions of lighting (4500 Lux), heating (40° C., 60° C.), and high humidity (RH 75%, RH 90%). Samplings were carried out on Day 5 and Day 10.

[2] = Special stability study of crystal form I (grinding, heating, tableting; XRPD and DSC); format: physicochemical
Method: 1. Differential Scanning Calorimeter, DSC
Instrument type: Mettler Toledo DSC 1 STAR^e System
Heating rate: 10.0° C./min
Temperature range: 40-300° C.
2. X-Ray Powder Diffraction, XRPD
Instrument type: Bruker D8 Focus X-ray powder diffractometer
Ray: monochromatic Cu-Kα ray (λ=1.5406)
Scanning mode: θ/2θ, Scanning range: 2-40°
Voltage: 40 kV, Electric current: 40 mA
The sample of crystal form I of the compound of formula (I) prepared according to the method of Example 1 was ground, heated and tableted.

purity as detected by HPLC, 40° C. ([1]; Day 0) [%] | purity as detected by HPLC, 40° C. ([1]; Day 5) [%] | purity as detected by HPLC, 40° C. ([1]; Day 10) [%] | purity as detected by HPLC, 60° C. ([1]; Day 0) [%] | purity as detected by HPLC, 60° C. ([1]; Day 5) [%] | purity as detected by HPLC, 60° C. ([1]; Day 10) [%] | purity as detected by HPLC, RH 75% ([1]; Day 0) [%] | purity as detected by HPLC, RH 75% ([1]; Day 5) [%] | purity as detected by HPLC, RH 75% ([1]; Day 10) [%] | purity as detected by HPLC, RH 90% ([1]; Day 0) [%] | purity as detected by HPLC, RH 90% ([1]; Day 5) [%] | purity as detected by HPLC, RH 90% ([1]; Day 10) [%] | purity as detected by HPLC, Lighting ([1]; Day 0) [%] | purity as detected by HPLC, Lighting ([1]; Day 5) [%] | purity as detected by HPLC, Lighting ([1]; Day 10) [%] | Structure (SMILES) | other results
99.75 | 99.57 | 99.35 | 99.75 | 99.53 | 99.47 | 99.75 | 99.51 | 99.48 | 99.75 | 99.54 | 99.38 | 99.75 | 98.30 | 96.83 | CONC(=O)Nc1ccc(-n2nc3c(c2CN(C)C)c(=O)n(-c2ccc(OC)nn2)c(=O)n3Cc2c(F)cccc2F)cc1 [Crystal form C, 1-(4-(7-(2,6-Difluorobenzyl)-3-((dimethylamino)methyl)-5-(6-methoxypyridazin-3-yl)-4,6-dioxo-4,5,6,7-tetrahydro-2H-pyrazolo[3,4-d]pyrimidin-2-yl)phenyl)-3-methoxy urea] | 
99.67 | 99.44 | 99.31 | 99.67 | 99.48 | 99.40 | 99.67 | 99.57 | 99.34 | 99.67 | 99.57 | 99.39 | 99.67 | 99.43 | 99.22 | CONC(=O)Nc1ccc(-n2nc3c(c2CN(C)C)c(=O)n(-c2ccc(OC)nn2)c(=O)n3Cc2c(F)cccc2F)cc1 [Crystal form D, 1-(4-(7-(2,6-Difluorobenzyl)-3-((dimethylamino)methyl)-5-(6-methoxypyridazin-3-yl)-4,6-dioxo-4,5,6,7-tetrahydro-2H-pyrazolo[3,4-d]pyrimidin-2-yl)phenyl)-3-methoxy urea] | 
99.36 | 99.33 | 99.41 | 99.36 | 99.24 | 99.30 | 99.36 | 99.22 | 99.31 | 99.36 | 99.27 | 99.27 | 99.36 | 99.26 | 99.20 | CONC(=O)Nc1ccc(-n2nc3c(c2CN(C)C)c(=O)n(-c2ccc(OC)nn2)c(=O)n3Cc2c(F)cccc2F)cc1 [Crystal form I, 1-(4-(7-(2,6-difluorobenzyl)-3-((dimethylamino)methyl)-5-(6-methoxypyridazin-3-yl)-4,6-dioxo-4,5,6,7-tetrahydro-2H-pyrazolo[3,4-d]pyrimidin-2-yl)phenyl)-3-methoxyurea] | DSC peak ([2]; after grinding treatment for 10 minutes): 166.16 °C; DSC peak ([2]; after heating treatment for 3 hours at 80° C.): 168.36 °C; DSC peak ([2]; after tableting treatment): 168.97 °C; crystal form during grinding, heating and tableting procedure ([2]; grinding, heating and tableting): not changed; crystal form by XRPD test after exposure ([1]; lighting, high humidity and high temperature, spread in the air): not changed; also recorded: unchanged; stability compared with crystal forms A, B, C and D ([1]; lighting, high humidity and high temperature, decrease of HPLC purity): significantly better

More lines, now with the values behind:

Structure (SMILES) | purity as detected by HPLC, 40° C. ([1]; Day 0) [%] | purity as detected by HPLC, 40° C. ([1]; Day 5) [%] | purity as detected by HPLC, 40° C. ([1]; Day 10) [%] | purity as detected by HPLC, 60° C. ([1]; Day 0) [%] | purity as detected by HPLC, 60° C. ([1]; Day 5) [%] | purity as detected by HPLC, 60° C. ([1]; Day 10) [%] | purity as detected by HPLC, RH 75% ([1]; Day 0) [%] | purity as detected by HPLC, RH 75% ([1]; Day 5) [%] | purity as detected by HPLC, RH 75% ([1]; Day 10) [%] | purity as detected by HPLC, RH 90% ([1]; Day 0) [%] | purity as detected by HPLC, RH 90% ([1]; Day 5) [%] | purity as detected by HPLC, RH 90% ([1]; Day 10) [%] | purity as detected by HPLC, Lighting ([1]; Day 0) [%] | purity as detected by HPLC, Lighting ([1]; Day 5) [%] | purity as detected by HPLC, Lighting ([1]; Day 10) [%] | other results
CONC(=O)Nc1ccc(-n2nc3c(c2CN(C)C)c(=O)n(-c2ccc(OC)nn2)c(=O)n3Cc2c(F)cccc2F)cc1 [Crystal form A, 1-(4-(7-(2,6-Difluorobenzyl)-3-((dimethylamino)methyl)-5-(6-methoxypyridazin-3-yl)-4,6-dioxo-4,5,6,7-tetrahydro-2H-pyrazolo[3,4-d]pyrimidin-2-yl)phenyl)-3-methoxy urea] | 97.86 | 97.50 | 97.52 | 97.86 | 97.62 | 97.50 | 97.86 | 97.61 | 97.65 | 97.86 | 97.59 | 97.79 | 97.86 | 97.27 | 97.13 | 
CONC(=O)Nc1ccc(-n2nc3c(c2CN(C)C)c(=O)n(-c2ccc(OC)nn2)c(=O)n3Cc2c(F)cccc2F)cc1 [Crystal form B, 1-(4-(7-(2,6-Difluorobenzyl)-3-((dimethylamino)methyl)-5-(6-methoxypyridazin-3-yl)-4,6-dioxo-4,5,6,7-tetrahydro-2H-pyrazolo[3,4-d]pyrimidin-2-yl)phenyl)-3-methoxy urea] | 99.69 | 99.45 | 99.03 | 99.69 | 99.45 | 99.34 | 99.69 | 99.52 | 99.34 | 99.69 | 99.47 | 99.34 | 99.69 | 99.39 | 99.19 | 
